Assays:
[1] = test system: mir-675-5p; experiment: ddPCR of mir-675-5p in drug-treated DUX4-transfected HEK293 cells; assay type: cell-based, human; settings: vs ethanol vehicle
Description: (§1) Digital Droplet PCR (ddPCR). For mir-675 and mi405 constructs, RNA extraction was carried out as described for QPCR above. For cDNA synthesis, the TaqMan advanced cDNA synthesis kit (Thermo Fisher) was used and cDNA was prepared by following manufacturer's instructions. ddPCR was carried out using 1× ddPCR Supermix for probes (No dUTP) (Bio-Rad), 1× commercially available mir-675 advanced TaqMan probe, or a custom made mi405 advanced TaqMan probe (ThermoFisher) and 50 ng of cDNA. For DUX4 cDNA synthesis, the High-Capacity cDNA Reverse Transcription Kit (Applied Biosystems) was used according to manufacturer's instructions. Within the same cDNA reaction, 1×RT random hexamer primers and 25 pmoles of the Oligo(dT) primer were used to generate cDNA for DUX4 and DUX4-responsive biomarkers and for mouse Rpl13A, used as a reference gene. To quantify DUX4, the ddPCR reaction mixture (20 μL) contained 1× ddPCR Evagreen Supermix (Bio-Rad), 1 μM of forward and reverse DUX4 primers (Sharma et al., J Genet Syndr Gene Ther 2016 August; 7(4):303. doi: 10.4172/2157-7412.1000303. Epub 2016 Aug. 8), and 50 ng of cDNA. To quantify Rpl13A and DUX4-responsive biomarkers (Trim36 and Wfdc3), the 1× ddPCR Supermix for probes (No dUTP) and TaqMan specific probes were used for each of the genes. Droplets were generated using the Automatic Droplet generator QX200 AutoDG (Bio-Rad), the reactions were amplified in a C1000 Touch™ Thermal Cycler with 96-Deep Well Reaction Module (Bio-Rad). Cycling conditions were set up following the QX200 ddPCR Evagreen Supermix protocol. All assays are compatible with an annealing temperature of 58° C. Droplets were then read using the QX200 droplet reader (Bio-Rad). Finally, data were analyzed using the QuantaSoft analysis software (Bio-Rad). For quantification, each reaction of 20 μL was estimated to give at least 10,000 acceptable droplets.
(§2) Three small molecule candidates (β-estradiol, a combination of β-estradiol+medroxyprogesterone acetate (MPA), and melatonin) were tested for their ability to upregulate mir-675-5p in HEK293 cells and in human myotubes. HEK293 cells normally express minimal amounts of mir-675. […] 24 hours after treatment, mir-675-5p expression was measured by Droplet Digital PCR (ddPCR).
In FIG. 28, β-estradiol, medroxyprogesterone acetate (MPA) and melatonin increased mir-675 expression and reduced the expression of DUX4 and DUX4-induced biomarker TRIM43 in HEK293 cells. […] The effects of these drugs were evaluated by comparison to ethanol (vehicle)-treated cells. […] The quantification (percent change) of gene expression from HEK293 cells treated with β-estradiol, β-estradiol+MPA, or melatonin was measured using droplet digital PCR (ddPCR) and is reported in Table 3 set out below. […]

[2] = test system: DUX4; experiment: ddPCR of transfected DUX4 in drug-treated HEK293 cells; assay type: cell-based, human; settings: vs ethanol vehicle
Description: as §1, with “Cycling conditions were set up following the QX200 ddPCR Evagreen Supermix protocol. All assays are compatible with an annealing temperature of 58° C.” left out
as §2, with “myotubes.” for “myotubes. HEK293 cells normally express minimal amounts of mir-675.”, “(ddPCR). […]” for “(ddPCR).”

[3] = test system: TRIM43; experiment: ddPCR of TRIM43 in drug-treated DUX4-transfected HEK293 cells; assay type: cell-based, human; settings: for TRIM43 (% decrease): vs ethanol vehicle
Description: as §1
Three small molecule candidates (β-estradiol, a combination of β-estradiol+medroxyprogesterone acetate (MPA), and melatonin) were tested for their ability to upregulate mir-675-5p in HEK293 cells and in human myotubes. HEK293 cells normally express minimal amounts of mir-675. HEK293 cells were treated with (1) 20 μM β-estradiol alone; (2) 10 μM or 20 μM β-estradiol+MPA; or (3) 20 μM or 40 μM melatonin. 24 hours after treatment, mir-675-5p expression was measured by Droplet Digital PCR (ddPCR).
In FIG. 28, β-estradiol, medroxyprogesterone acetate (MPA) and melatonin increased mir-675 expression and reduced the expression of DUX4 and DUX4-induced biomarker TRIM43 in HEK293 cells. Droplet Digital PCR (ddPCR) was carried out to measure mir-675-5p, DUX4 and TRIM43 levels. HEK293 cells were transfected with DUX4 and were treated with two drugs individually (i.e., β-estradiol and melatonin) or with a combination of β-estradiol and MPA at 10, 20 or 40 μM at the time of transfection. The effects of these drugs were evaluated by comparison to ethanol (vehicle)-treated cells. Numbers correspond to n=3 independent experiments (ANOVA, P<0.0001). The quantification (percent change) of gene expression from HEK293 cells treated with β-estradiol, β-estradiol+MPA, or melatonin was measured using droplet digital PCR (ddPCR) and is reported in Table 3 set out below. Anti-mir-675 is an antagomiR targeting the mature sequence of mir-675-5p, inhibiting its function as inhibitor of DUX4 gene expression. CMV.DUX4-mir-675Res is an expression plasmid encoding a DUX4 mutant sequence. […]

[4] = test system: mir-675-5p; experiment: ddPCR of mir-675-5p in drug-treated FSHD myotubes; assay type: cell-based, human; settings: 20 μM
Text: (§3) Primary Cell Culture. 15A, 17A sand 18A FSHD human myoblasts and 15V control human myoblasts were provided by the UMMS Wellstone Center for FSHD and have been previously characterized [Jones et al., Hum. Mol. Genet. 21: 4419-4430 (2012)]. Previously immortalized 15A cell lines have a single 4qA permissive allele. […] 15V cell lines have two 4qB non-permissive alleles. Cells were propagated by feeding them every two days with new LHCN medium [4:1 DMEM:Medium 199 (Gibco) supplemented with 15% characterized FBS (Corning), 0.02 M HEPES (Thermo Fisher), 0.03 μg/mL ZnSO4 (Honeywell Fluka), 1.4 μg/mL Vitamin B12 (Sigma-Aldrich), 0.055 μg/mL dexamethasone (Sigma-Aldrich), 1% antibiotics/antimycotics (Gibco), 2.5 ng/mL hepatocyte growth factor (Millipore) and 10 ng/mL basic fibroblast growth factor (Millipore)]. For differentiation, myoblasts were switched to a differentiation medium [4:1 DMEM: Medium 199 (Gibco) supplemented with 15% KnockOut Serum Replacement (ThermoFisher Scientific), 2 mM L-glutamine (Gibco), 1% antibiotics/antimycotics (Gibco), 1 mM sodium pyruvate (Gibco) and 20 mM HEPES (ThermoFisher Scientific)] when cells were at >90% confluency. Before adding differentiation medium, cells were washed with PBS (Gibco). Cells were seeded with new differentiation medium every three days for up to 7 days. To detach cells, TrypLE™ Express, phenol red (ThermoFisher Scientific) was used.
as §1
(§4) Next, the effects of the three treatment regimens were tested on the expression of endogenous mir-675-5p, DUX4 and TRIM43 in 15A, 17A and 18A FSHD differentiated muscle cell lines (myotubes) (FIG. 29 and Table 4). […] Mol. Genet. 21: 4419-30 (2012)]. In FIG. 29, β-estradiol, medroxyprogesterone acetate (MPA) and melatonin increased mir-675 expression and reduced the expression of DUX4 and the DUX4-induced biomarker TRIM43 in three FSHD affected myotube lines. Droplet digital PCR (ddPCR) was used to measure mir-675-5p, DUX4 and TRIM43 levels in 15A (A), 17A (B) and 18A (C) FSHD affected myotubes five days after differentiation. […]

[5] = test system: DUX4; experiment: ddPCR of DUX4 in drug-treated FSHD myotubes; assay type: cell-based, human; settings: for DUX4 (% decrease): 20 μM
Text: as §3, §1, §4

[6] = test system: TRIM43; experiment: ddPCR of TRIM43 in drug-treated FSHD myotubes; assay type: cell-based, human; settings: for TRIM43 (% decrease): 20 μM; for reduction of TRIM43 expression: 18A FSHD myotubes, 40 μM, added 4th day, collected 5th day of differentiation
Text: as §3, §1, §4

[7] = test system: ZSCAN4; experiment: ddPCR of ZSCAN4 in drug-treated 18A FSHD myotubes; assay type: cell-based, human; settings: 40 μM, added 4th day, collected 5th day of differentiation
Description: 18A FSHD affected muscles cell lines were treated with increasing concentrations of Pyrazinamide or Sorafenib at the 4th day of differentiation into myotubes. Cells were collected at the 5th day of differentiation. RNA was extracted and ddPCR gene expression analysis on DUX4, TRIM43 and ZSCAN4 was carried out. As a result, 40 μM of Pyrazinamide reduced TRIM43 and ZSCAN4 expression by 35±7% (ANOVA, P=0.0378, N=3 independent experiments) and 42±6% (ANOVA, P=0.0043, N=3 independent experiments), respectively (FIG. 35). Sorafenib reduced DUX4, TRIM43 and ZSCAN4 expression in a dose dependent manner, where it reached maximum inhibition when used at a concentration of 40 μM. At the latter, Sorafenib reduced DUX4, TRIM43 and ZSCAN4 expression by 40±10% (ANOVA, P=0.0486, N=3 independent experiments), 70±4% (ANOVA, P=0.0003, N=3 independent experiments) and 68±3% (ANOVA, P=0.0001, N=3 independent experiments), respectively (FIG. 35).

[8] = test system: mir-675; settings: published gene expression studies; cited from earlier work

SMILES	mir-675-5p (% increase) ([1]; 20 μM) [%]	DUX4 (% decrease) ([2]; 20 μM)	TRIM43 (% decrease) ([3]; 20 μM, HEK293)	mir-675-5p (% increase) ([4]; 15A 5DD myotubes, N = 6)	mir-675-5p (% increase) ([4]; 17A 5DD myotubes, N = 3)	mir-675-5p (% increase) ([4]; 18A 5DD myotubes, N = 3)	DUX4 (% decrease) ([5]; 15A 5DD myotubes, N = 6)	DUX4 (% decrease) ([5]; 17A 5DD myotubes, N = 3)	DUX4 (% decrease) ([5]; 18A 5DD myotubes, N = 3)	TRIM43 (% decrease) ([6]; 15A 5DD myotubes, N = 6)	TRIM43 (% decrease) ([6]; 17A 5DD myotubes, N = 3)	TRIM43 (% decrease) ([6]; 18A 5DD myotubes, N = 3)	reduction of TRIM43 expression [6] [%]	reduction of ZSCAN4 expression [7] [%]	mir-675 expression [8]	also measured
C[C@]12CC[C@@H]3c4ccc(O)cc4CC[C@H]3[C@@H]1CC[C@@H]2O [β-estradiol]	92 ± 34	significant decrease	significant decrease	47 ± 11 | *, %	38 ± 09 | *, %	382 ± 44 | ***, %	70 ± 38 | *, %	63 ± 19 | *, %	49 ± 19 | *, %	46 ± 40 | NS, %	31 ± 12 | *, %	57 ± 07 | ** , %	–	–	–	mir-675-5p (% increase) ([1]; 10 μM): 22 ± 06%
CNC(=O)c1cc(Oc2ccc(NC(=O)Nc3ccc(Cl)c(C(F)(F)F)c3)cc2)ccn1 [Sorafenib, 4-[4-[[4-chloro-3-(trifluoromethyl)phenyl]carbamoylamino]phenoxy]-N-methylpyridine-2-carboxamide]	–	–	–	–	–	–	–	–	–	–	–	–	70±4	68±3	upregulated mir-675 expression	reduction of DUX4 expression ([5]; 18A FSHD myotubes, 40 μM, added 4th day, collected 5th day of differentiation): 40±10%
COc1ccc2[nH]cc(CCNC(C)=O)c2c1 [Melatonin, melatonin]	229 ± 53	90 ± 01%	52 ± 01%	44 ± 16 | *, %	48 ± 09 | **, %	154 ± 59 | *, %	88 ± 40 | **, %	55 ± 09 | *, %	38 ± 17 | *, %	75 ± 45 | *, %	30 ± 12 | *, %	70 + 15 | ***, %	–	–	mir-675 was induced	mir-675-5p (% increase) ([1]; 40 μM): 246 ± 53%; DUX4 (% decrease) ([2]; 40 μM): 93 ± 01%; +anti-mir-675 (300 nM) TRIM43 (% increase) ([3]; 20 μM, HEK293, co-transfected anti-mir-675 300 nM): 21 ± 01%; TRIM43 (% decrease) ([3]; 40 μM, HEK293): 58 ± 01%; +CMV.DUX4-mir-675Res TRIM43 (% decrease) ([3]; 40 μM, HEK293 transfected with CMV.DUX4-mir-675Res): 0.1 ± 16%
NC(=O)c1cnccn1 [Pyrazinamide, pyrazine-2-carboxamide]	–	–	–	–	–	–	–	–	–	–	–	–	35±7	42±6	upregulated mir-675 expression	–
